Measurements from publication PMC7170309, “Imidazopyridine-fused [1,3]diazepinones: modulations of positions 2 to 4 and their impacts on the anti-melanoma activity” (Journal of Enzyme Inhibition and Medicinal Chemistry, 2020).
pIC50: −log10 of the molar value.

Key:
SK-MEL-2 = test: NCI-60 SRB assay, SK-MEL-2 (Melanoma); assay type: cell-based, human; details: 10 µM, 48 h; for G%: growth vs untreated control
Experimental: (§1) Primary anticancer assay was performed on a panel of 60 human cancer cell lines derived from nine neoplastic diseases, in accordance with the protocol of the Drug Evaluation Branch, National Cancer Institute, Bethesda, Maryland, USA[22]. Cells were incubated with tested compounds at 10 µM for 48 h. The growth percentage was evaluated spectrophotometrically using a protein binding dye, SRB. Results for each tested compound were reported as the percent of growth of treated cells when compared to untreated control cells.
(§2) To better compare the activity profile of these two series of compounds, compounds 5 and 8 were selected and then evaluated towards a panel of sixty cancer cell lines corresponding to nine different cancer types, i.e. leukaemia, melanoma, as well as lung, colon, central nervous system, ovarian, renal, prostate and breast cancers (NCI evaluation). Indeed, it is now well established that the growth inhibitory patterns of anticancer drugs against the NCI-60 cell line panel correlated well with their modes of action. For example, compounds that bind to tubulin have similar growth inhibition patterns regardless of which site on tubulin they bind[30]. […] Compounds were tested using the sulforhodamine B (SRB) assay that provides a direct cell density index. The amount of dye incorporated by the cells increases with the increase of the total protein biomass. Cells were incubated for 48 h with compounds at 10 µM concentration, then cell growth was evaluated spectrophotometrically and presented as the percent of untreated control cells. Values of the most sensitive cell lines were compared to those obtained with JMV5038 (Figure 4, for all data see SI).

PC-3 = test: NCI-60 SRB assay, PC-3 (Prostate Cancer); assay type: cell-based, human; details: 10 µM, 48 h; for G%: growth vs untreated control
Experimental: as §1, §2

HCT-116 = test: NCI-60 SRB assay, HCT-116 (Colon Cancer); assay type: cell-based, human; details: 10 µM, 48 h; for G%: growth vs untreated control
Experimental: as §1, §2

LOX IMVI = test: NCI-60 SRB assay, LOX IMVI (Melanoma); assay type: cell-based, human; details: 10 µM, 48 h; for G%: growth vs untreated control
Experimental: as §1, §2

786-0 = test: NCI-60 SRB assay, 786-0 (Renal Cancer); assay type: cell-based, human; details: 10 µM, 48 h; for G%: growth vs untreated control
Experimental: as §1, §2

UACC-257 = test: NCI-60 SRB assay, UACC-257 (Melanoma); assay type: cell-based, human; details: 10 µM, 48 h; for G%: growth vs untreated control
Experimental: as §1, §2

BT-549 = test: NCI-60 SRB assay, BT-549 (Breast Cancer); assay type: cell-based, human; details: 10 µM, 48 h; for G%: growth vs untreated control
Experimental: as §1, §2

SN12C = test: NCI-60 SRB assay, SN12C (Renal Cancer); assay type: cell-based, human; details: 10 µM, 48 h; for G%: growth vs untreated control
Experimental: as §1, §2

HOP-62 = test: NCI-60 SRB assay, HOP-62 (NSCLC); assay type: cell-based, human; details: 10 µM, 48 h; for G%: growth vs untreated control;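 for Mean G% - G%: mean growth across the NCI-60 panel minus this line's growth with positive meaning more sensitive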
Experimental: as §1, §2

[1] = test system: NIH-3T3 non-cancerous cells; test: Neutral red uptake (NRU) toxicity assay, NIH-3T3; assay type: cell-based; details: Mus musculus, NIH3T3, 72 h, non-cancerous mouse fibroblasts
Experimental: Melanoma human cancer cell line (A375 and MDA-MB-435) were obtained from ATCC. The NIH-3T3 cell line was generously gifted by the ANSM (French National Agency for Medicines and Health Products Safety, Vendargues, France). Cells were cultured in Dulbecco’s Modified Eagle Medium (DMEM, Sigma Aldrich) supplemented with 10% heat-inactivated foetal calf serum (FCS, Gibco), 2 mM glutamax (Gibco), 100 IU/mL penicillin G sodium (Sigma Aldrich), 100 lU/mL streptomycin sulphate (Sigma Aldrich). The cells were allowed to grow at 37 °C in a fully humidified atmosphere containing 5% CO2.
A viability assay was used to evaluate the cytotoxic activity on A375 and MDA-MB-435 melanoma cells as previously described. According to OCDE/ICCVAM guidance n°129, NRU assay was also used to evaluate the toxicity on the non-cancerous NIH-3T3 cells. Cells were seeded at a final concentration of 2000 cells/well (A375), 3000 cells/well (NIH-3T3) or 7500 cells/well (MDA-MB-435) in 96-well microtiter plates for 24 h. Then, cells were exposed to two negative controls (1% DMSO in culture medium (vehicle) and culture medium alone), or to different compounds freshly dissolved in DMSO, in a range of concentration from 0.01 to 40 µM (six wells per concentration). After 72 h of incubation, cells were stained with new medium containing 50 µg/mL of neutral red (3-amino-7-dimethylamino-2-methylphenazine hydrochloride, Sigma Aldrich) at 37 °C for 2 h. The neutral red medium solution was then removed and the wells were washed with PBS. Finally, 100 µL of solution containing ethanol, acetic acid and water (50/1/49 v/v/v respectively) were added into the wells and the absorbance was measured at 540 nm using the microplate reader 352 Multiscan MS (Labsystems). Cell survival rates were normalised to the absorbance values of untreated control cells. IC50 was obtained using a logistic regression model on Graphpad Prism 5.0 software. Results are given as the mean ± standard deviation (SD) of three independent experiments. Statistical analysis was performed using the Student’s t-test.
Then, all active compounds on the two melanoma cell lines (IC50 < 40 µM) were assessed on the NIH-3T3 mouse fibroblast cell line, in order to check the toxicity of our compounds on non-cancerous cells. […] As a possible modification of the mechanism of action was hypothesised for these two derivatives (see above), this phenomenon could probably be also correlated with the cytotoxicity observed on the NIH-3T3 cell line.

MCF7 = test: NCI-60 SRB assay, MCF7 (Breast Cancer); assay type: cell-based, human; details: 10 µM, 48 h; for G%: growth vs untreated control;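 for Mean G% - G%: mean growth across the NCI-60 panel minus this line's growth with positive meaning more sensitive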
Experimental: as §1, §2

HCT-15 = test: NCI-60 SRB assay, HCT-15 (Colon Cancer); assay type: cell-based, human; details: 10 µM, 48 h; for G%: growth vs untreated control
Experimental: as §1, §2

NCI-H23 = test: NCI-60 SRB assay, NCI-H23 (NSCLC); assay type: cell-based, human; details: 10 µM, 48 h; for G%: growth vs untreated control
Experimental: as §1, §2

SF-268 = test: NCI-60 SRB assay, SF-268 (CNS Cancer); assay type: cell-based, human; details: 10 µM, 48 h; for G%: growth vs untreated control
Experimental: as §1, §2

NCI-H226 = test: NCI-60 SRB assay, NCI-H226 (NSCLC); assay type: cell-based, human; details: 10 µM, 48 h; for G%: growth vs untreated control
Experimental: as §1, §2

DU-145 = test: NCI-60 SRB assay, DU-145 (Prostate Cancer); assay type: cell-based, human; details: 10 µM, 48 h; for G%: growth vs untreated control
Experimental: as §1, §2

HS 578T = test: NCI-60 SRB assay, HS 578T (Breast Cancer); assay type: cell-based, human; details: 10 µM, 48 h; for G%: growth vs untreated control
Experimental: as §1, §2

U251 = test: NCI-60 SRB assay, U251 (CNS Cancer); assay type: cell-based, human; details: 10 µM, 48 h; for G%: growth vs untreated control
Experimental: as §1, §2

SNB-19 = test: NCI-60 SRB assay, SNB-19 (CNS Cancer); assay type: cell-based, human; details: 10 µM, 48 h; for G%: growth vs untreated control
Experimental: as §1, §2

NCI-H322M = test: NCI-60 SRB assay, NCI-H322M (NSCLC); assay type: cell-based, human; details: 10 µM, 48 h; for G%: growth vs untreated control
Experimental: as §1, §2

EKVX = test: NCI-60 SRB assay, EKVX (NSCLC); assay type: cell-based, human; details: 10 µM, 48 h; for G%: growth vs untreated control
Experimental: as §1, §2

MOLT-4 = test: NCI-60 SRB assay, MOLT-4 (Leukemia); assay type: cell-based, human; details: 10 µM, 48 h
Experimental: as §1, §2

C[C@@H]1NC(c2ccc(N=[N+]=[N-])cc2)=Nc2nc3ccccn3c2C1=O [Compound 5, (4S)-4-methyl-2-(4-azidophenyl)-3,4-dihydro-5H-pyrido[1’,2’:1,2]imidazo[4,5-d][1,3]diazepin-5-one] was tested, and the “Mean G% - G%” value (SK-MEL-2) was -9,12%, the G% (SK-MEL-2) was 94,38% and the “Mean G% - G%” value (PC-3) was -10,97%. The G% (PC-3) was 96,23%, the “Mean G% - G%” value (HCT-116) was -2,45% and the G% (HCT-116) was 87,71%. For the same molecule, the “Mean G% - G%” value (LOX IMVI) was 4,81%, the G% (LOX IMVI) was 80,45% and the “Mean G% - G%” value (786-0) was -9,88%. The G% (786-0) was 95,14%, the “Mean G% - G%” value (UACC-257) was -15,59% and the G% (UACC-257) was 100,85%. The “Mean G% - G%” value (BT-549) was -10,11%, the G% (BT-549) was 95,37% and the “Mean G% - G%” value (SN12C) was -18,28%. The G% (SN12C) was 103,54%, the “Mean G% - G%” value (HOP-62) was 6,31% and the G% (HOP-62) was 78,95%. The pIC50 [1] was < 4.40, the “Mean G% - G%” value (MCF7) was 26,64% and the G% (MCF7) was 58,62%. For the same molecule, the “Mean G% - G%” value (HCT-15) was 16,87%, the G% (HCT-15) was 68,39% and the “Mean G% - G%” value (NCI-H23) was -1,81%. The G% (NCI-H23) was 87,07%, the “Mean G% - G%” value (SF-268) was -12,35% and the G% (SF-268) was 97,61%. For the same molecule, the “Mean G% - G%” value (NCI-H226) was -3,88%, the G% (NCI-H226) was 89,14% and the “Mean G% - G%” value (DU-145) was -18,38%. For the same molecule, the G% (DU-145) was 103,64%, the “Mean G% - G%” value (HS 578T) was -10,95% and the G% (HS 578T) was 96,21%. For the same molecule, the “Mean G% - G%” value (U251) was -13,85%, the G% (U251) was 99,11% and the “Mean G% - G%” value (SNB-19) was -4,44%. For the same molecule, the G% (SNB-19) was 89,70%, the “Mean G% - G%” value (NCI-H322M) was -10,63% and the G% (NCI-H322M) was 95,89%. The “Mean G% - G%” value (EKVX) was 3,45% and the G% (EKVX) was 81,81%.

C[C@@H]1NC(c2csc3ccccc23)=Nc2nc3ccccn3c2C1=O [Compound 8, (4S)-4-methyl-2-benzothiophen-3-yl-3,4-dihydro-5H-pyrido[1’,2’:1,2]imidazo[4,5-d][1,3]diazepin-5-one] was tested, and the “Mean G% - G%” value (SK-MEL-2) was -20,08%, the G% (SK-MEL-2) was 94,95% and the “Mean G% - G%” value (PC-3) was -2,69%. For the same molecule, the G% (PC-3) was 77,56%, the “Mean G% - G%” value (HCT-116) was 2,74% and the G% (HCT-116) was 72,13%. For the same molecule, the “Mean G% - G%” value (LOX IMVI) was -18,67%, the G% (LOX IMVI) was 93,54% and the “Mean G% - G%” value (786-0) was -14,72%. For the same molecule, the G% (786-0) was 89,59%, the “Mean G% - G%” value (UACC-257) was -23,68% and the G% (UACC-257) was 98,55%. The “Mean G% - G%” value (BT-549) was -11,85%, the G% (BT-549) was 86,72% and the “Mean G% - G%” value (SN12C) was -9,24%. The G% (SN12C) was 84,11%, the “Mean G% - G%” value (HOP-62) was 23,74% and the G% (HOP-62) was 51,13%. The pIC50 [1] was < 4.40, the “Mean G% - G%” value (MCF7) was 24,29% and the G% (MCF7) was 50,58%. For the same molecule, the “Mean G% - G%” value (HCT-15) was -1,17%, the G% (HCT-15) was 76,04% and the “Mean G% - G%” value (NCI-H23) was 3,92%. For the same molecule, the G% (NCI-H23) was 70,95%, the “Mean G% - G%” value (SF-268) was 8,82% and the G% (SF-268) was 66,05%. The “Mean G% - G%” value (NCI-H226) was 2,63%, the G% (NCI-H226) was 72,24% and the “Mean G% - G%” value (DU-145) was 2,24%. For the same molecule, the G% (DU-145) was 72,63%, the “Mean G% - G%” value (HS 578T) was 15,40% and the G% (HS 578T) was 59,47%. The “Mean G% - G%” value (MOLT-4) was -8,59%, the G% (MOLT-4; growth vs untreated control) was 83,46% and the “Mean G% - G%” value (U251) was -12,47%. For the same molecule, the G% (U251) was 87,34%, the “Mean G% - G%” value (SNB-19) was -4,95% and the G% (SNB-19) was 79,82%. The “Mean G% - G%” value (NCI-H322M) was 10,06%, the G% (NCI-H322M) was 64,81% and the “Mean G% - G%” value (EKVX) was 0,63%. The G% (EKVX) was 74,24%.
